Common to all, as to assay type: binding
Experiment [1] relates to mouse VEGF in mouse 3LL Lewis Lung carcinoma tumor sections. As to the kind of experiment: Immunohistochemistry, endothelial cell staining, mouse 3LL tumor. Further details: key: −, negative; +/−, very weak; 1+, weak; 2+, moderate; 3+, strong; 4+, very strong. The following applies: acetone fixed frozen sections. Here is the method: (§1) Tumors were snap frozen in liquid nitrogen and stored at −70° C. Frozen samples of tumor specimens from patients were obtained from the National Cancer Institute Cooperative Human Tissue Network (Southern Division, Birmingham, Ala.). Immunohistochemistry was performed as described by Burrows et al. (1995).
Tumors examined through immunohistochemistry were human tumors of various types from cancer patients, transplantable human tumor xenografts of various types grown in mice, guinea pig Line 10 tumor grown in guinea pig, and mouse 3LL tumor grown in mice (see legend to Table 3 for details).

For experiment [2], the system named is guinea pig VEGF in line 10 guinea pig tumor sections. As to the kind of experiment: Immunohistochemistry, endothelial cell staining, guinea pig Line 10 tumor. Further details: key: −, negative; +/−, very weak; 1+, weak; 2+, moderate; 3+, strong; 4+, very strong. The following applies: acetone fixed frozen sections. The protocol: (§2) Guinea pig line 10 hepatocellular carcinoma tumor cells (obtained from Dr. Ronald Neuman, NIH, Bethesda, Md.) were grown in strain 2 guinea pigs (NCI, Bethesda, Md.). The human tumors NCI-H358 non-small cell lung carcinoma (NSCLC), NCI-H460 NSCLC (both obtained from Dr. Adi Gazdar, UT Southwestern, Dallas, Tex.), HT29 colon adenocarcinoma (American Type Culture Collection), and L540CY Hodgkin's lymphoma (obtained from Professor V. Diehl, Cologne, Germany) were grown as xenografts in CB17 SCID mice (Charles River, Wilmington, Mass.).
as §1

The test system of experiment [3] is tumor sections (endothelium, connective tissue, tumor cell). As to the kind of experiment: Immunohistochemistry on frozen tumor sections (reactivity pattern). Further details: key: EC = endothelium; CT = connective tissue; TC = tumor cell; NR = no reaction. The note with it: acetone fixed frozen sections; 2C3 and 12D7 at 20 μg/ml, others 5-10 μg/ml. Here is the method: as §2
Tumors were snap frozen in liquid nitrogen and stored at −70° C. Frozen samples of tumor specimens from patients were obtained from the National Cancer Institute Cooperative Human Tissue Network (Southern Division, Birmingham, Ala.). Immunohistochemistry was performed as described by Burrows et al. (1995). […]
The immunohistochemical reactivity of 3E7, GV39M, and 11B5 on NCI-H358 human NSCLC xenografts was determined and compared with control antibodies (an IgG of irrelevant specificity; A-20, a rabbit anti-VEGF antibody; and MECA 32, a rat anti-mouse endothelial cell antibody). […]

As for “2C3: anti-VEGF monoclonal antibody, IgG2a, k, produced by hybridoma ATCC PTA 1595; blocks VEGF binding to VEGFR2 but not VEGFR1 [Clone 2C3]”, the “Endothelial Cell Staining, Mouse Tumor (3LL)” value in experiment [1] is reported as “−”. In addition, the “Endothelial Cell Staining, Guinea Pig Tumor (Line 10)” value in experiment [2] is “−”. Further, in experiment [3], the “Reactivity (immunohistochemical pattern on tumor sections)” value is listed as “NR”.

The record behind these values is patent US6342219B1 (Board of Regents, The University of Texas System, priority 1999, dated 2002).
